Source: ChEMBL document CHEMBL1134245, “Two novel and potent 3-[(o-methoxyphenyl)piperazinylethyl]-5-phenylthien” (Bioorg Med Chem Lett, 2001)

Key:
[1] = molecular target: T1, Alpha-1B adrenergic receptor (Homo sapiens, UniProt P35368); experiment: Binding affinity towards human Alpha-1B adrenergic receptor
T1 sequence (P35368 whole entry): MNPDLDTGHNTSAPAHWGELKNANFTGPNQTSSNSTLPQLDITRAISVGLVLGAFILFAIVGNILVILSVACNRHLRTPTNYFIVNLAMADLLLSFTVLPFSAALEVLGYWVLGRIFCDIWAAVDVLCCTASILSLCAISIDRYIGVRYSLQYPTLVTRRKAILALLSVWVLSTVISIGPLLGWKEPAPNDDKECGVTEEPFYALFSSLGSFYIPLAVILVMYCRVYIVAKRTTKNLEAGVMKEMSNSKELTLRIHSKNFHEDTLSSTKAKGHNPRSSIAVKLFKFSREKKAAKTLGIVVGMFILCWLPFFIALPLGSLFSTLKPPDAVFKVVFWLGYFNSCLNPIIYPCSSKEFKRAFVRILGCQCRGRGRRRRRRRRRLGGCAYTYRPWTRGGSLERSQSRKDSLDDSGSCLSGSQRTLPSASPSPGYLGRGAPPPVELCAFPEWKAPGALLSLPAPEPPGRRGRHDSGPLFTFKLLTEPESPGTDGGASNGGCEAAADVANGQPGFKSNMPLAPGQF

[2] = Ancillary Binding affinity towards rat 5-hydroxytryptamine 2 receptor
[3] = molecular target: T2, Alpha-1D adrenergic receptor (Homo sapiens, UniProt P25100); experiment: Binding affinity towards human Alpha-1D adrenergic receptor
T2 sequence (P25100 whole entry): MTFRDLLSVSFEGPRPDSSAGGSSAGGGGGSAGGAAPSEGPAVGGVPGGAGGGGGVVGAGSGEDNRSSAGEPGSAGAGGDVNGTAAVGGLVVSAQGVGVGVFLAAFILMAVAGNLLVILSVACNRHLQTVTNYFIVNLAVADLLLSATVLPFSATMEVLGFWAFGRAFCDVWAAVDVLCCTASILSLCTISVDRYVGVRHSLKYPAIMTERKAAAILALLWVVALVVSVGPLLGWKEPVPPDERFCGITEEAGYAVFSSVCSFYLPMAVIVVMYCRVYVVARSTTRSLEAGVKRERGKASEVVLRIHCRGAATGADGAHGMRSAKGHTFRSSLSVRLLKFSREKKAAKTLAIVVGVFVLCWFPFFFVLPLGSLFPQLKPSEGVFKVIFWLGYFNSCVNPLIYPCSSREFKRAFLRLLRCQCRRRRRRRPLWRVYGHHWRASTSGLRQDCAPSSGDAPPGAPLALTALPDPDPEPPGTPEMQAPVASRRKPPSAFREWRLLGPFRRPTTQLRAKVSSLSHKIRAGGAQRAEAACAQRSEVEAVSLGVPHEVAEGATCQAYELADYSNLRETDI

[4] = molecular target: T3, Alpha-1B adrenergic receptor (Rattus norvegicus, UniProt P15823); experiment: In vitro functional activity at Alpha-1B adrenergic receptor in rat spleen; format: tissue-based; settings: read-out: pA2 (converted)
T3 sequence (P15823 whole entry): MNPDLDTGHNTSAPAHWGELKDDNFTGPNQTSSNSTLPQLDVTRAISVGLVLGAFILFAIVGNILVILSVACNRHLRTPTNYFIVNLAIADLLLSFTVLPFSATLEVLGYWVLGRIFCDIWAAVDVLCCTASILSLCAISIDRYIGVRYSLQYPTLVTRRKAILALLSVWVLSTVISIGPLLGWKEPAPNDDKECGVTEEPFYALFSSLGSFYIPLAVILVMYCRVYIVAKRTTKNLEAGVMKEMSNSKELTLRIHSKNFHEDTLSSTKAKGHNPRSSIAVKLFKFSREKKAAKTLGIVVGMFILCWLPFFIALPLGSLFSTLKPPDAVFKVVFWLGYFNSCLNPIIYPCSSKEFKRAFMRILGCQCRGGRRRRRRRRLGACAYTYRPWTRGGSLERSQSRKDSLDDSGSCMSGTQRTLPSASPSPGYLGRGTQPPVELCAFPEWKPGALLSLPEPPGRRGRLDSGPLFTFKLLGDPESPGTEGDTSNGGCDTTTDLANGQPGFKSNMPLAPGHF

[5] = molecular target: T4, Alpha-2A adrenergic receptor (Homo sapiens, UniProt P08913); experiment: Ancillary Binding affinity towards cloned human Alpha-2A adrenergic receptor
T4 sequence (P08913 whole entry): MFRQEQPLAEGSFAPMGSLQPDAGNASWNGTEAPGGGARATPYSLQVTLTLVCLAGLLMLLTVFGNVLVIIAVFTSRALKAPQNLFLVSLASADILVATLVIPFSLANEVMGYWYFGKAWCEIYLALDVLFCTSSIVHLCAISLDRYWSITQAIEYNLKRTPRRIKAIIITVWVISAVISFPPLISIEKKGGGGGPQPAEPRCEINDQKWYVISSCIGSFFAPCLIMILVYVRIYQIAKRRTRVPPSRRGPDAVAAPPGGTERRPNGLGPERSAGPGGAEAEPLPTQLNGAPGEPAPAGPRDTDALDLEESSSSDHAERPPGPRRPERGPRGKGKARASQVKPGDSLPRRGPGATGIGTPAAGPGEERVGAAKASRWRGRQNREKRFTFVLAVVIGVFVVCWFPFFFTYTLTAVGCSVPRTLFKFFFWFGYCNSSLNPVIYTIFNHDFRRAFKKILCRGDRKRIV

[6] = molecular target: T5, Alpha-2C adrenergic receptor (Homo sapiens, UniProt P18825); experiment: Ancillary Binding affinity to cloned human Alpha-2C adrenergic receptor
T5 sequence (P18825 whole entry): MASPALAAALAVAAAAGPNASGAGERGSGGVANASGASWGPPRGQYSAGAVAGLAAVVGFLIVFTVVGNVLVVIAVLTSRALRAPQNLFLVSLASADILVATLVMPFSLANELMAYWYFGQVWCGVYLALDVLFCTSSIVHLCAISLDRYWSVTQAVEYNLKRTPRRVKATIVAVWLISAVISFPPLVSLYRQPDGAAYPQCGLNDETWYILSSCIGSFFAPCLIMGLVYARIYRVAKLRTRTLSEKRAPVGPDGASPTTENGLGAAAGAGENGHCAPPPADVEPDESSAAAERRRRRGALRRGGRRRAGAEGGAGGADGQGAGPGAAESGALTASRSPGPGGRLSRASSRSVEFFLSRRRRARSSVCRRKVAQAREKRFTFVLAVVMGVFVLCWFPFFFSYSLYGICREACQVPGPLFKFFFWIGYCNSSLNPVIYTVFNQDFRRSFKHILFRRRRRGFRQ

D(1A) dopamine receptor = D(1A) dopamine receptor (Rattus norvegicus, UniProt P18901); experiment: Ancillary Binding affinity to rat Dopamine receptor D1
D(1A) dopamine receptor, sequence (P18901 whole entry): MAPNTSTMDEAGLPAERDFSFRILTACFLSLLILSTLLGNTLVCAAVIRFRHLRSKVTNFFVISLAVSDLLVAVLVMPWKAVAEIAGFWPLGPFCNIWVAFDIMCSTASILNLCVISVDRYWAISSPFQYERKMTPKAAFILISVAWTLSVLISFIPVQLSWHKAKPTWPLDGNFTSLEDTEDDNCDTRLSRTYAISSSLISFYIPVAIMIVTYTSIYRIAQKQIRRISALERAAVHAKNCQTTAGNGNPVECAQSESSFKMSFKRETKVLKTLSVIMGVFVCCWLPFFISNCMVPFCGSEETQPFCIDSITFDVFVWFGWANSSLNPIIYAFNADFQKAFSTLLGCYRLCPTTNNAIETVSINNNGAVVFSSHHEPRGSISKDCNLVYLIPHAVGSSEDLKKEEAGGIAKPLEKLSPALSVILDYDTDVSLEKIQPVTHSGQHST

Ki [1] [nM] | Ki [3] [nM] | Kb [4] [nM] | Ki [5] [nM] | Ki [6] [nM] | Ki (D(1A) dopamine receptor) [nM] | Structure (SMILES) | Ki [2] [nM]
9.09 | 0.312 | 1.74 | 82.5 | 82 | 12300 | COc1ccccc1N1CCN(CCn2c(=O)[nH]c3scc(-c4cccc(C)c4)c3c2=O)CC1 [A-123189] | 2190
4.66 | 0.252 | 2.04 | 77.8 | 74.7 | 6090 | COc1ccccc1N1CCN(CCn2c(=O)[nH]c3scc(-c4ccccc4)c3c2=O)CC1 [A-119637] | 137
